Reference: PubChem BioAssay (NCI)
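96-well plates; 48 h exposure; 5 concentrations. Endpoints by linear interpolation between flanking doses. Not reached: highest tested concentration assigned. GI50 marks 50% less growth. TGI denotes the concentration required for complete inhibition of growth.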

Tests used:
Assay in all cases: NCI tumour cell line growth inhibition, 48 h
LXFL 529 NSCLC = system: LXFL 529 NSCLC
HOP-18 NSCLC = system: HOP-18 NSCLC
SN12K1 renal = system: SN12K1 renal
P388/ADR leukemia = system: P388/ADR leukemia
P388 leukemia = system: P388 leukemia

## NC(=S)N/N=C/c1nccc2ccccc12
LXFL 529 NSCLC
  TGI: > 100 µM
HOP-18 NSCLC
  TGI: > 100 µM

## COc1cc([C@@H]2c3cc4c(c(O)c3C[C@H]3COC(=O)[C@@H]32)OCO4)cc(OC)c1OC
SN12K1 renal
  GI50: 52.6 pM
  TGI: 0.000207 µM
P388/ADR leukemia
  TGI: 35.1 µM
P388 leukemia
  TGI: 0.551 µM
HOP-18 NSCLC
  TGI: 61.9 µM

## Cc1[nH]c(=O)nc2c1C(NCCCN(C)C)c1cc(Cl)ccc1N2 (configuration not stated)
LXFL 529 NSCLC
  TGI: 30.6 µM

## CC1=NN(C(=O)c2ccccc2O)C(=O)/C1=C/c1cccc(O)c1
LXFL 529 NSCLC
  TGI: > 100 µM

## Cc1nc2c(c(=O)[nH]1)S/C(=C(/C#N)c1nc3ccccc3[nH]1)N2c1ccccc1
LXFL 529 NSCLC
  TGI: > 100 µM

## C=C(C)C(=O)O[C@H]1CC2=C[C@@H](C[C@@]3(C)O[C@@H]3[C@H]3OC(=O)C(=C)[C@@H]31)OC2=O
SN12K1 renal
  TGI: 12.1 µM
P388/ADR leukemia
  TGI: 11.1 µM
P388 leukemia
  TGI: 15.6 µM
HOP-18 NSCLC
  GI50: 6.42 µM
  TGI: 10.9 µM

## COc1ccccc1C1C(Cl)C(=O)N1n1cnc2ccccc2c1=O (configuration not stated)
LXFL 529 NSCLC
  TGI: > 100 µM
HOP-18 NSCLC
  TGI: > 100 µM
